Measurements as given in the CheMixHub viscosity set.

Assay: xn = mol fraction of the nth substance listed

COCCO + Cc1ccc(C)cc1
viscosity [mPa·s], 101 kPa
Conditions	298.15 K	308.15 K
x1 = 0.0528	0.626	0.549
x1 = 0.1469	0.654	0.57
x1 = 0.2507	0.696	0.601
x1 = 0.3484	0.746	0.639
x1 = 0.4499	0.812	0.688
x1 = 0.4999	0.85	0.716
x1 = 0.5542	0.897	0.75
x1 = 0.6493	0.994	0.82
x1 = 0.7508	1.122	0.913
x1 = 0.8478	1.274	1.021
x1 = 0.9556	1.488	1.17

CC(=O)OC(C)C + Cc1cccc(C)c1
viscosity [mPa·s], 101 kPa
Conditions	x1 = 0.0998	x1 = 0.212	x1 = 0.3176	x1 = 0.4048	x1 = 0.5079	x1 = 0.6118	x1 = 0.7201	x1 = 0.8193	x1 = 0.9305
303.15 K	0.544	0.53	0.518	0.509	0.499	0.489	0.481	0.474	0.466
313.15 K	0.488	0.475	0.464	0.456	0.447	0.438	0.43	0.423	0.417

CC(=O)OCC(C)C + Cc1cccc(C)c1
viscosity [mPa·s], 101 kPa
Conditions	x1 = 0.094	x1 = 0.1803	x1 = 0.2916	x1 = 0.3889	x1 = 0.4721	x1 = 0.5698	x1 = 0.6807	x1 = 0.7789	x1 = 0.8716	x1 = 0.9307
303.15 K	0.556	0.562	0.572	0.582	0.592	0.602	0.616	0.629	0.641	0.644
313.15 K	0.505	0.508	0.515	0.521	0.527	0.536	0.546	0.555	0.566	0.572

CCCC(=O)O + Cc1cccc(O)c1
viscosity [mPa·s], 101 kPa
Conditions	x1 = 0.1119	x1 = 0.2209	x1 = 0.3191	x1 = 0.4306	x1 = 0.5314	x1 = 0.6298	x1 = 0.7257	x1 = 0.8194	x1 = 0.9108
298.15 K	10.28	8.292	6.808	5.408	4.362	3.51	2.822	2.272	1.845
308.15 K	6.028	5.153	4.446	3.724	3.137	2.619	2.167	1.782	1.471
318.15 K	4.743	4.158	3.662	3.14	2.707	2.316	1.957	1.621	1.293

CC(CC(C)(C)C)CC(C)(C)CC(C)(C)C (stereo not drawn) + Cc1ccccc1
viscosity [mPa·s], 100 kPa
Conditions	x2 = 0.4498	x2 = 0.7104	x2 = 0.8804
298.15 K	1.499	0.946	0.684
313.15 K	1.196	0.78	0.58
